Measured values reported in patent publication US9682067B2, “Methods of improving cognitive function” (priority 2010, dated 2017).
Where two headings read alike, the source gives them in different places.

Legend:
[1] = tested on: GluR6 receptor; experiment: Complex olfactory discrimination learning in 4-arm maze after injection into the brain ventricles; type: in vivo; settings: rats; 500 nmol into the brain ventricles, evaluation 10 min after daily injection; saline injected rats 8 days; p<0.001
Procedure: Olfactory discrimination protocol was performed in a 4-arm radial maze, with odors that are frequently used in the food industry (FIG. 1A). FIG. 1A is a schematic description of the 4-arm maze: an electronic ‘start’ command opens randomly two out of eight valves (V), releasing a positive-cue odor (P) into one of the arms and a negative-cue odor (N) into another. Eight seconds later, the two corresponding guillotine doors (D) are lifted to allow the rat to enter the selected arms. Upon reaching the far end of an arm (90 cm long), the rat body interrupts an infrared beam (I, arrow) and a drop of drinking water is released from a water hose (W) into a small drinking well (for a trained rat—only if the arm contains the positive-cue odor, for pseudo-trained rat—randomly). A trial ends when the rat interrupts a beam, or in 10 seconds, if no beam was interrupted. A fan is operated for 15 seconds between trials, to remove odors.
Olfactory training included 20 trials per day. […] A pseudo-trained group of age-matched rats was exposed to the same protocol of training, but with random water rewarding. An age-matched naive group of rats was water-deprived, without exposure to training. A day following memorization of a pair of odors by the rats in the trained group, both trained and pseudo trained groups were trained with a new pair of odors. […]

[2] = tested on: GluR6; type: cell-based, mice; settings: 1 sec depolarizing pulse, Ithx2, versus control
Procedure: For neuronal adaptation measurements, prolonged (1 sec) depolarizing current steps are applied to the neurons via the recording electrode at Vrest, with stimulus intensity of twice IThreshold (FIG. 2B). The firing frequency was measured between each of two spikes in the train, and values were normalized to the initial frequency at which the first two spikes are generated. FIG. 2B is a graph depicting an example for neuronal firing adaptation in layer II pyramidal cell.
FIG. 10B is a bar graph depicting the number of spikes following kainate application in GluR6+/+ and GluR6−/− neurons, as opposed to control, (n) depicts the number of neurons.

[3] = tested on: kainate receptors; experiment: Post-burst AHP amplitude in pyramidal neurons of brain slices after brief kainate exposure; type: cell-based, rat; settings: for averaged AHP amplitude: after ten minutes long exposure to kainate, p<0.05
Procedure: brain slices of the pirofm cortex hippocampus are prepared and recordings were obtained from pyramidal neurons, with sharp electrodes for current clamp studies of AHP and neuronal adaptation. Data was collected from at least 20 neurons taken for 6 rats or more in each experimental group.
for after-hyper-polarization (AHP) measurement, neurons were depolarized in current clamp mode to Vm of −60 mV with DC current injection, and 100 ms long depolarizing current steps were applied with intensity sufficient to evoke trains of 6 action potentials. AHP amplitude was measured from baseline to the peak of the hyperpolarizing voltage deflection that follows the spike train (FIGS. 2A1 and 2A2). The AHP value was determined from the averaged amplitude in 4-5 consecutive traces, evoked at intervals of 10 sec. FIGS. 2A1 and 2A2 show the same trace on different time scales. Neurons were held at membrane potential of −60 mV and post-burst AHP was generated by 100 ms depolarizing current step injection via the recording electrode, with intensity sufficient to generate a train of 6 action potentials.
These experiments included a brief, ten minutes long, exposure to kainate. […] This decrease outlasted while kainate was present and was always apparent for the total length to kainate exposure (FIG. 8A).
The post burst AHP in neurons from trained rats was not affected by exposure to kainate. The averaged AHP in kainate induced, trained neurons was 6.63±2.4 (n=7).

Compound | averaged number of training days required for learning completion [1] | number of action potentials (spikes) following kainate application ([2]; neurons from GluR6 knockout (GluR6-/-) mice) | number of action potentials (spikes) following kainate application ([2]; neurons of wild type (GluR6+/+) mice) | averaged AHP amplitude ([3]; neurons from naive animals, n=16) | averaged AHP amplitude ([3]; neurons from pseudo trained rats, n=7) | effect on post burst AHP ([3]; neurons from trained rats, exposure to kainate) | averaged AHP ([3]; neurons from trained rats, kainate induced, n=7)
Cc1onc(O)c1CCC(N)C(=O)O (racemic) [homo-AMPA, (RS)-2-amino-4-(3-hydroxy-5-methylisoxazol-4-yl)butyric acid] | less than five | – | – | – | – | – | –
C=C(C)[C@H]1CN[C@H](C(=O)O)[C@H]1CC(=O)O [kainate, kainic acid] | – | no effect | doubles | 6.0±2.5 | 6.63 ± 2.4 | not affected | 6.63±2.4
